Results taken from article PMC9053591 (RSC Advances, 2020).
Values joined by “and” are separate entries in the source; they are usually repeats but may differ in a detail not shown here. Equal entries are not always repeated. Structures can show the parent of a compound that is named as a salt.

Columns and labels:
[1] = biological target: BuChE from equine serum (Equus caballus, UniProt P81908); assay: BuChE inhibition, Ellman's method; format: biochemical
[2] = biological target: AChE from electric eel (Electrophorus electricus, UniProt O42275); assay: AChE inhibition, Ellman's method; format: biochemical; details: IC50 ± SD (μM) AChE, means ± SD of three experiments
AChE from electric eel, sequence (O42275 24-633): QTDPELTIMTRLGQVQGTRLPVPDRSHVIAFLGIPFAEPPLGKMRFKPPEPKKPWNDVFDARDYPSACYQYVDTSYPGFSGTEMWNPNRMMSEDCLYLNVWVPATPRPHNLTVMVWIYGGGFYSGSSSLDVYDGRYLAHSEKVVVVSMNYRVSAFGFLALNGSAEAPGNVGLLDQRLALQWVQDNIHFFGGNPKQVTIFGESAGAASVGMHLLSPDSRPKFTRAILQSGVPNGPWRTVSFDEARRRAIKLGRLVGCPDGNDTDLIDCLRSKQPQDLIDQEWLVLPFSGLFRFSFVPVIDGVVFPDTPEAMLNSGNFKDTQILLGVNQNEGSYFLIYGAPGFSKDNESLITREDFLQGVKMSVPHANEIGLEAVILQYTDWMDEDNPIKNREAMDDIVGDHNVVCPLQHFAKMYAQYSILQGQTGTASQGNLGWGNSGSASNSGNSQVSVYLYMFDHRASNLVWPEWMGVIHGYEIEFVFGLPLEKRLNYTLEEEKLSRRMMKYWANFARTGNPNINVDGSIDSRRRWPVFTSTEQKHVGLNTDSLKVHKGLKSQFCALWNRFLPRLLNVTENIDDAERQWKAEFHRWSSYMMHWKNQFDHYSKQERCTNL

[3] = system: scopolamine induced mice model of dementia; assay: Elevated plus maze; format: in vivo; details: n = 6, SEM
[4] = biological target: T1, Aβ1-42 (Homo sapiens, UniProt P05067); assay: Confocal laser scanning microscopy of Aβ1-42 aggregation inhibition; format: biochemical; details: Aβ1-42 co-incubated with compound, 48 h, 37 °C
T1 sequence (P05067 672-713): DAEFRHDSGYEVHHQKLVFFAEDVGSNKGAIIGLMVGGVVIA

[5] = system: scopolamine induced mice; assay: Social recognition test, scopolamine induced mice; format: in vivo
[6] = system: SH-SY5Y cells; assay: In vitro cytotoxicity, MTT assay; format: cell-based, human; details: 1 and 5 μM, 24 h, MTT
[7] = In vitro cytotoxicity, MTT assay; format: cell-based, human; details: human, SH-SY5Y cells
[8] = biological target: AChE (Electrophorus electricus, UniProt O42275); assay: Kinetic characterization of AChE inhibition, Lineweaver–Burk plot; format: biochemical; details: Lineweaver–Burk reciprocal plots; compound at 2, 6 and 8 μM
AChE, sequence (O42275 24-633): as the sequence (O42275 24-633) above

[9] = biological target: T1, Aβ1-42; assay: TEM study of inhibition of Aβ1-42 fibril formation; format: biochemical; details: Aβ1-42 50 μM, compound 50 μM, 37 °C, 48 h
[10] = system: SH-SY5Y cells; assay: Neuroprotection against H2O2-induced death, MTT assay; details: 200 μM H2O2 for 24 h

BuChE from equine serum, sequence (P81908 whole entry): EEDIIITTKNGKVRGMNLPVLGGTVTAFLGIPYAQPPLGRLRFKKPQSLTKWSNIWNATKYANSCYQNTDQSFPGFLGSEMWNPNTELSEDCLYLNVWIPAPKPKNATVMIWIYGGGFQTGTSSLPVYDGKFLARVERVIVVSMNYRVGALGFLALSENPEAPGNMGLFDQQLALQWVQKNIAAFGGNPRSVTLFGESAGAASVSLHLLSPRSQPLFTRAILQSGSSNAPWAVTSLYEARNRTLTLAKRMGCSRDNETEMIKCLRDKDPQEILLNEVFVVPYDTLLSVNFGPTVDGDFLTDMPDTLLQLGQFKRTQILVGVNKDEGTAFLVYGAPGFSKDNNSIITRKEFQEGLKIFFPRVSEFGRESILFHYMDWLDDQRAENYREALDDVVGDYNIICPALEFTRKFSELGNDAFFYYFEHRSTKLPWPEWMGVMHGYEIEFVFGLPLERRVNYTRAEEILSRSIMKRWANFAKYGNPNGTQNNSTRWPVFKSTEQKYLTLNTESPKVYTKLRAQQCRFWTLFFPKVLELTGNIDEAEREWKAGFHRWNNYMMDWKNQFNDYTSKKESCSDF

In the case of `CS(=O)(=O)c1ccc2nc(NC(=O)CCN3CCN(c4ccccc4)CC3)sc2c1` [Compound 4, N-(6-Methanesulfonyl-benzothiazol-2-yl)-3-(4-phenyl-piperazin-1-yl)-propionamide], the IC50 [1] is reported as > 100 µM and the IC50 [2] is reported as 24.1 ± 0.721 µM.

With `CS(=O)(=O)c1ccc2nc(NC(=O)CCN3CCN(c4ccc(F)cc4)CC3)sc2c1` [Compound 5, 3-[4-(4-Fluoro-phenyl)-piperazin-1-yl]-N-(6-methanesulfonyl-benzothiazol-2-yl)-propionamide] the IC50 [1] was > 100 µM and the IC50 [2] was 18.3 ± 0.777 µM.

For `CS(=O)(=O)c1ccc2nc(NC(=O)CCN3CCN(c4ccc(Cl)cc4)CC3)sc2c1` [Compound 6, 3-[4-(4-Chloro-phenyl)-piperazin-1-yl]-N-(6-methanesulfonyl-benzothiazol-2-yl)-propionamide], the IC50 [1] was > 100 µM and the IC50 [2] was 13 ± 0.813 µM.

With `CS(=O)(=O)c1ccc2nc(NC(=O)CCN3CCN(c4ccc([N+](=O)[O-])cc4)CC3)sc2c1` [Compound 7, N-(6-Methanesulfonyl-benzothiazol-2-yl)-3-[4-(4-nitro-phenyl)-piperazin-1-yl]-propionamide] the IC50 [1] was > 100 µM and the IC50 [2] was 11.3 ± 1.8 µM.

With `Cc1ccc(N2CCN(CCC(=O)Nc3nc4ccc(S(C)(=O)=O)cc4s3)CC2)cc1` [Compound 8, N-(6-Methanesulfonyl-benzothiazol-2-yl)-3-(4-p-tolyl-piperazin-1-yl)-propionamide] the IC50 [1] was > 100 µM and the IC50 [2] was 20.2 ± 1.44 µM.

In the case of `COc1ccc(N2CCN(CCC(=O)Nc3nc4ccc(S(C)(=O)=O)cc4s3)CC2)cc1` [Compound 9, N-(6-Methanesulfonyl-benzothiazol-2-yl)-3-[4-(4-methoxy-phenyl)-piperazin-1-yl]-propionamide], the IC50 [1] is reported as > 100 µM and the IC50 [2] is reported as 14.5 ± 1.03 µM.

With `CS(=O)(=O)c1ccc2nc(NC(=O)CCN3CCN(Cc4ccccc4)CC3)sc2c1` [Compound 10, 3-(4-Benzyl-piperazin-1-yl)-N-(6-methanesulfonyl-benzothiazol-2-yl)-propionamide] the IC50 [1] was > 100 µM and the IC50 [2] was 7.83 µM.

In the case of `CS(=O)(=O)c1ccc2nc(NC(=O)CCN3CCN(C(c4ccccc4)c4ccccc4)CC3)sc2c1` [Compound 11, 3-(4-Benzhydryl-piperazin-1-yl)-N-(6-methanesulfonyl-benzothiazol-2-yl)-propionamide], the IC50 [1] is reported as > 100 µM and the IC50 [2] is reported as 4.54 µM and 4.55 µM.

For `CS(=O)(=O)c1ccc2nc(NC(=O)CCN3CCN(c4ccccn4)CC3)sc2c1` [Compound 12, N-(6-Methanesulfonyl-benzothiazol-2-yl)-3-(4-pyridin-2-yl-piperazin-1-yl)-propionamide], the IC50 [1] was > 100 µM, the “Transfer latency (TL)” value ([3]; scopolamine 3 mg kg−1 + compound 10 mg kg−1 i.p., 7 days) was 12.81 ± 2.08 s and the “Transfer latency (TL)” value ([3]; scopolamine 3 mg kg−1 + compound 20 mg kg−1 i.p., 7 days) was 12.62 ± 2.60 s. The “Aβ1-42 aggregation by confocal laser scanning microscopy (ThT fluorescence)” value [4] was “proficiently prevents Aβ1-42 fibril formation”, the IC50 [2] was 2.31 µM and 2.32 µM and the “T2/T1 ratio (second interaction trial/first interaction trial)” value ([5]; scopolamine + compound 20 mg kg−1, mean SEM of 6 animals) was 0.377 ± 0.00072. The Cytotoxicity [6] was “no cytotoxicity”, the viability at 24 h, 10 µM [7] was > 67% and the “Type of AChE inhibition” value [8] was “uncompetitive type of inhibition”. For the same compound, the “Aβ1-42 fibril formation by TEM” value [9] was “small dissociated aggregates and no characteristic fibrils of Aβ1-42”.

In the case of `CS(=O)(=O)c1ccc2nc(NC(=O)CCN3CCN(c4ncccn4)CC3)sc2c1` [Compound 13, N-(6-Methanesulfonyl-benzothiazol-2-yl)-3-(4-pyrimidin-2-yl-piperazin-1-yl)-propionamide], the IC50 [1] is reported as > 100 µM and the IC50 [2] is reported as 10.9 ± 0.657 µM.

In the case of `CS(=O)(=O)c1ccc2nc(NC(=O)CCN3CCN(C(=O)c4ccco4)CC3)sc2c1` [Compound 14, 3-[4-(Furan-2-carbonyl)-piperazin-1-yl]-N-(6-methanesulfonyl-benzothiazol-2-yl)-propionamide], the IC50 [1] is reported as > 100 µM and the IC50 [2] is reported as 14.6 ± 0.438 µM.

With `CS(=O)(=O)c1ccc2nc(NC(=O)CCN3CCN(C(=O)OCc4ccccc4)CC3)sc2c1` [Compound 15, 4-[2-(6-Methanesulfonyl-benzothiazol-2-ylcarbamoyl)-ethyl]-piperazine-1-carboxylic acid benzyl ester] the IC50 [1] was > 100 µM and the IC50 [2] was 19.5 ± 0.452 µM.

With `CS(=O)(=O)c1ccc2nc(NC(=O)CCN3CCN(Cc4ccc5c(c4)OCO5)CC3)sc2c1` [Compound 16, 3-(4-Benzo[1,3]dioxol-5-ylmethyl-piperazin-1-yl)-N-(6-methanesulfonyl-benzothiazol-2-yl)-propionamide] the IC50 [1] was > 100 µM and the IC50 [2] was 5.24 µM.

For `CS(=O)(=O)c1ccc2nc(NC(=O)CCN3CCN(c4ccc(C(F)(F)F)cc4)CC3)sc2c1` [Compound 17, N-(6-Methanesulfonyl-benzothiazol-2-yl)-3-[4-(4-trifluoromethyl-phenyl)-piperazin-1-yl]-propionamide], the IC50 [1] was > 100 µM and the IC50 [2] was 26.4 ± 0.551 µM.

In the case of `OO` [Compound H2O2, hydrogen peroxide], the “Cell viability with H2O2 alone” value [10] is reported as 54.90%.

With `COc1cc(/C=C/C(=O)CC(=O)/C=C/c2ccc(O)c(OC)c2)ccc1O` [Curcumin, reference compound] the “Aβ1-42 fibril formation by TEM” value [9] was “small dissociated aggregates and no characteristic fibrils of Aβ1-42”.

With `COc1cc2c(cc1OC)C(=O)C(CC1CCN(Cc3ccccc3)CC1)C2` (centres unmarked) [Donepezil, reference compound] the “Transfer latency (TL)” value ([3]; scopolamine 3 mg kg−1 + donepezil 5 mg kg−1 i.p., 7 days) was 15.08 ± 1 s.

For `CN1[C@@H]2C[C@@H](OC(=O)[C@H](CO)c3ccccc3)C[C@H]1[C@@H]1O[C@@H]12` [scopolamine, Scopolamine hydrobromide, reference compound], the “Transfer latency (TL)” value ([3]; scopolamine 3 mg kg−1 i.p. alone, retention trial) was 22.00 ± 0.81 s and the “T2/T1 ratio (second interaction trial/first interaction trial)” value ([5]; scopolamine 3 mg kg−1 alone, mean SEM of 6 animals) was 1.103 ± 0.037.
